# Laboratory results reported in ChEMBL document CHEMBL1201862, “PubChem BioAssay data set” (2004).
#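 96-well plates; 48 h exposure; 5 concentrations. Endpoints by linear interpolation between flanking doses. Not reached: highest tested concentration assigned. Here, GI50 denotes the concentration required for 50% inhibition of growth.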 Calls of active or inactive are those of the source. Rule as the data show it: active = GI50 up to about 1.1 µM and inactive = higher.
# Assays:
# Assay in all cases: NCI anticancer screen, dose series, 48 h
# RPMI-8226 = system: RPMI-8226
# NCI-H23 = system: NCI-H23
# IGROV-1 = system: IGROV-1
# SF-295 = system: SF-295
# SK-MEL-2 = system: SK-MEL-2
# CAKI-1 = system: CAKI-1
# UACC-257 = system: UACC-257
# SR = system: SR
# K562 = system: K562
# SK-MEL-5 = system: SK-MEL-5
# OVCAR-8 = system: OVCAR-8
# SW-620 = system: SW-620
# HCC 2998 = system: HCC 2998
# OVCAR-3 = system: OVCAR-3
# HT-29 = system: HT-29
# MOLT-4 = system: MOLT-4
# NCI-H460 = system: NCI-H460
# NCI/ADR-RES = system: NCI/ADR-RES
# COLO 205 = system: COLO 205
# OVCAR-4 = system: OVCAR-4
# BT-549 = system: BT-549
# UACC-62 = system: UACC-62
# UO-31 = system: UO-31
# SK-OV-3 = system: SK-OV-3
# ACHN = system: ACHN
# M14 = system: M14
# SK-MEL-28 = system: SK-MEL-28
# HOP-62 = system: HOP-62
# PC-3 = system: PC-3
# HOP-92 = system: HOP-92
# 786-0 = system: 786-0
# T47D = system: T47D
# NCI-H226 = system: NCI-H226
# TK-10 = system: TK-10
# U-251 = system: U-251
# EKVX = system: EKVX
# A549 = system: A549
# HCT-116 = system: HCT-116
# SNB-19 = system: SNB-19
# MDA-N = system: MDA-N
# HL-60 = system: HL-60
# A498 = system: A498
# RXF 393 = system: RXF 393
# MCF7 = system: MCF7
# Malme-3M = system: Malme-3M
# SNB-75 = system: SNB-75
# NCI-H522 = system: NCI-H522
# KM12 = system: KM12
# MDA-MB-435 = system: MDA-MB-435
# HCT-15 = system: HCT-15
# DU-145 = system: DU-145
# SN12C = system: SN12C
# LOX IMVI = system: LOX IMVI
# CCRF-CEM = system: CCRF-CEM
# MDA-MB-231 = system: MDA-MB-231
# OVCAR-5 = system: OVCAR-5
# SF-268 = system: SF-268
# SF-539 = system: SF-539
# Hs-578T = system: Hs-578T
smiles,measurement,setting,value
O=C1CCCC1C(=O)Nc1ccc2ccccc2c1 (stereo not given),GI50,RPMI-8226,59.2 µM (inactive)
same,GI50,NCI-H23,> 100 µM (inactive)
same,GI50,IGROV-1,> 100 µM (inactive)
same,GI50,SF-295,> 100 µM (inactive)
same,GI50,SK-MEL-2,> 100 µM (inactive)
same,GI50,CAKI-1,> 100 µM (inactive)
same,GI50,UACC-257,> 100 µM (inactive)
same,GI50,SR,> 100 µM (inactive)
same,GI50,K562,53.5 µM (inactive)
same,GI50,SK-MEL-5,> 100 µM (inactive)
same,GI50,OVCAR-8,> 100 µM (inactive)
same,GI50,SW-620,> 100 µM (inactive)
same,GI50,HCC 2998,> 100 µM (inactive)
same,GI50,OVCAR-3,> 100 µM (inactive)
same,GI50,HT-29,55.7 µM (inactive)
same,GI50,MOLT-4,36.2 µM (inactive)
same,GI50,NCI-H460,> 100 µM (inactive)
same,GI50,NCI/ADR-RES,> 100 µM (inactive)
same,GI50,COLO 205,> 100 µM (inactive)
same,GI50,OVCAR-4,> 100 µM (inactive)
same,GI50,BT-549,> 100 µM (inactive)
same,GI50,UACC-62,> 100 µM (inactive)
same,GI50,UO-31,> 100 µM (inactive)
same,GI50,SK-OV-3,> 100 µM (inactive)
same,GI50,ACHN,> 100 µM (inactive)
same,GI50,M14,> 100 µM (inactive)
same,GI50,SK-MEL-28,> 100 µM (inactive)
same,GI50,HOP-62,> 100 µM (inactive)
same,GI50,PC-3,> 100 µM (inactive)
same,GI50,HOP-92,> 100 µM (inactive)
same,GI50,786-0,> 100 µM (inactive)
same,GI50,T47D,62.5 µM (inactive)
same,GI50,NCI-H226,> 100 µM (inactive)
same,GI50,TK-10,> 100 µM (inactive)
same,GI50,U-251,> 100 µM (inactive)
same,GI50,EKVX,32.1 µM (inactive)
same,GI50,A549,> 100 µM (inactive)
same,GI50,HCT-116,> 100 µM (inactive)
same,GI50,SNB-19,> 100 µM (inactive)
same,GI50,MDA-N,> 100 µM (inactive)
same,GI50,HL-60,35.6 µM (inactive)
same,GI50,A498,> 100 µM (inactive)
same,GI50,RXF 393,44.5 µM (inactive)
same,GI50,MCF7,> 100 µM (inactive)
same,GI50,Malme-3M,> 100 µM (inactive)
same,GI50,SNB-75,29.4 µM (inactive)
same,GI50,NCI-H522,49 µM (inactive)
same,GI50,KM12,84.9 µM (inactive)
same,GI50,MDA-MB-435,> 100 µM (inactive)
same,GI50,HCT-15,> 100 µM
same,GI50,DU-145,> 100 µM (inactive)
same,GI50,SN12C,> 100 µM (inactive)
same,GI50,LOX IMVI,> 100 µM (inactive)
same,GI50,CCRF-CEM,57 µM (inactive)
same,GI50,MDA-MB-231,> 100 µM (inactive)
same,GI50,OVCAR-5,> 100 µM (inactive)
same,GI50,SF-268,> 100 µM (inactive)
CCc1cc2c(oc3c4ccccc4ccc23)c(=O)[nH]1,GI50,NCI-H23,> 10 µM (inactive)
same,GI50,IGROV-1,> 10 µM (inactive)
same,GI50,SF-295,> 10 µM (inactive)
same,GI50,SF-539,> 10 µM (inactive)
same,GI50,UACC-257,> 10 µM (inactive)
same,GI50,SR,> 10 µM (inactive)
same,GI50,K562,> 10 µM (inactive)
same,GI50,OVCAR-8,> 10 µM (inactive)
same,GI50,SW-620,> 10 µM (inactive)
same,GI50,OVCAR-3,> 10 µM (inactive)
same,GI50,HT-29,> 10 µM (inactive)
same,GI50,Hs-578T,> 10 µM (inactive)
same,GI50,MOLT-4,> 10 µM (inactive)
same,GI50,NCI-H460,> 10 µM (inactive)
same,GI50,OVCAR-4,> 10 µM (inactive)
same,GI50,BT-549,> 10 µM (inactive)
same,GI50,UACC-62,> 10 µM (inactive)
same,GI50,UO-31,> 10 µM (inactive)
same,GI50,SK-OV-3,> 10 µM (inactive)
same,GI50,ACHN,> 10 µM (inactive)
same,GI50,M14,> 10 µM (inactive)
same,GI50,PC-3,> 10 µM (inactive)
same,GI50,HOP-92,> 10 µM (inactive)
same,GI50,786-0,> 10 µM (inactive)
same,GI50,NCI-H226,> 10 µM (inactive)
same,GI50,TK-10,> 10 µM (inactive)
same,GI50,U-251,> 10 µM (inactive)
same,GI50,EKVX,> 10 µM (inactive)
same,GI50,A549,> 10 µM (inactive)
same,GI50,HCT-116,> 10 µM (inactive)
same,GI50,SNB-19,> 10 µM (inactive)
same,GI50,MDA-N,> 10 µM (inactive)
same,GI50,HL-60,> 10 µM (inactive)
same,GI50,RXF 393,> 10 µM (inactive)
same,GI50,MCF7,> 10 µM (inactive)
same,GI50,SNB-75,> 10 µM (inactive)
same,GI50,NCI-H522,> 10 µM (inactive)
same,GI50,KM12,> 10 µM (inactive)
same,GI50,MDA-MB-435,> 10 µM (inactive)
same,GI50,DU-145,> 10 µM (inactive)
same,GI50,LOX IMVI,> 10 µM (inactive)
same,GI50,CCRF-CEM,> 10 µM (inactive)
same,GI50,OVCAR-5,> 10 µM (inactive)
same,GI50,SF-268,> 10 µM (inactive)
O=C(O)CC(CC(=O)O)n1cccc1,GI50,RPMI-8226,> 100 µM (inactive)
same,GI50,NCI-H23,> 100 µM (inactive)
same,GI50,IGROV-1,> 100 µM (inactive)
same,GI50,SF-295,> 100 µM (inactive)
same,GI50,SF-539,> 100 µM (inactive)
same,GI50,SK-MEL-2,> 100 µM (inactive)
same,GI50,CAKI-1,> 100 µM (inactive)
same,GI50,UACC-257,> 100 µM (inactive)
same,GI50,SR,> 100 µM (inactive)
same,GI50,K562,> 100 µM (inactive)
same,GI50,SK-MEL-5,> 100 µM (inactive)
same,GI50,OVCAR-8,> 100 µM (inactive)
same,GI50,SW-620,> 100 µM (inactive)
same,GI50,OVCAR-3,> 100 µM (inactive)
same,GI50,HT-29,> 100 µM (inactive)
same,GI50,MOLT-4,> 100 µM (inactive)
same,GI50,NCI-H460,> 100 µM (inactive)
same,GI50,NCI/ADR-RES,> 100 µM (inactive)
same,GI50,COLO 205,> 100 µM (inactive)
same,GI50,OVCAR-4,> 100 µM (inactive)
same,GI50,BT-549,> 100 µM (inactive)
same,GI50,UACC-62,> 100 µM (inactive)
same,GI50,UO-31,> 100 µM (inactive)
same,GI50,SK-OV-3,> 100 µM (inactive)
same,GI50,ACHN,> 100 µM (inactive)
same,GI50,M14,> 100 µM (inactive)
same,GI50,SK-MEL-28,> 100 µM (inactive)
same,GI50,HOP-62,> 100 µM (inactive)
same,GI50,PC-3,> 100 µM (inactive)
same,GI50,HOP-92,> 100 µM (inactive)
same,GI50,786-0,> 100 µM (inactive)
same,GI50,T47D,> 100 µM (inactive)
same,GI50,NCI-H226,> 100 µM (inactive)
same,GI50,TK-10,> 100 µM (inactive)
same,GI50,U-251,> 100 µM (inactive)
same,GI50,EKVX,> 100 µM (inactive)
same,GI50,A549,> 100 µM (inactive)
same,GI50,HCT-116,> 100 µM (inactive)
same,GI50,SNB-19,> 100 µM (inactive)
same,GI50,MDA-N,> 100 µM (inactive)
same,GI50,HL-60,> 100 µM (inactive)
same,GI50,A498,> 100 µM (inactive)
same,GI50,RXF 393,> 100 µM (inactive)
same,GI50,MCF7,> 100 µM (inactive)
same,GI50,NCI-H522,> 100 µM (inactive)
same,GI50,KM12,> 100 µM (inactive)
same,GI50,MDA-MB-435,> 100 µM (inactive)
same,GI50,HCT-15,> 100 µM
same,GI50,DU-145,> 100 µM (inactive)
same,GI50,SN12C,> 100 µM (inactive)
same,GI50,LOX IMVI,> 100 µM (inactive)
same,GI50,CCRF-CEM,> 100 µM (inactive)
same,GI50,MDA-MB-231,> 100 µM (inactive)
same,GI50,OVCAR-5,> 100 µM (inactive)
